Test results from patent US11246893B2, “Bacteriocin production, compositions and methods of use” (ISOThrive Inc., priority 2016, dated 2022).

Tests used:
[1] = tested on: Weissella viridescens NRRL B-1951; assay: tube assay, W. viridescens growth with nisin A or Z (absorbance); assay type: cell-based
Method: 100 g De-Man, Rogosa and Sharpe (MRS) media was prepared in a 500 mL Erlenmeyer to contain 5.5% solids in deionized water (18.2 MΩ, Hydro Service and Supplies. Gaithersburg, Md.). The media was autoclaved (121° C. 15 min), cooled, and inoculated with 1 mL (0.5 mL culture+0.5 mL glycerol, 40%; frozen at −78° C.) of Weissella viridescens NRRL B-1951 (test strain). The culture was incubated at 31° C. overnight (15 Hr).
The next day, stock solutions of either nisin A or Z were prepared in deionized water to contain 31.3 and 33.7 μg/g of each peptide.
100 g MRS media was prepared to contain 5.5% solids. Two sets (one set each for nisin A and nisin Z) of eight Hach-type tubes (Kimble Chase 45066-16100) were prepared. Within each set, in order was added 5.00, 4.95, 4.90, 4.75, 4.50, 4.00, 3.50 and 3.00 g MRS media. The tubes were sealed and autoclaved.
To each tube was added, of the appropriate nisin stock, 0.00, 0.05, 0.10, 0.25, 0.50, 1.00, 1.50, and 2.00 g. Each tube was inoculated with 0.25 g of late-log W. viridescens NRRL B-1951 culture. The tubes were sealed and the absorbance at 600 nm was quickly measured (Hach DR900). The tubes were segregated by set and incubated at 31° C. overnight (15 Hr).
Each tube was thoroughly mixed to suspend settled cells and the absorbance was measured again at 600 nm. The final absorbance values for each sample were corrected for their respective background (taken just after inoculation, scattered light from added cells). The corrected absorption values were a measure of W. viridescens growth.
As indicated above, the absorbance of the culture was measured again at 600 nm as a measure of W. viridescens growth, and the absorbance values for each sample were corrected for their respective background. These corrected absorption values plotted against nisin concentration and minimum inhibiting concentration approximated via regression.
The results were fit via four parameter logistic regression (4PLR), combined into a continuous function with a second assay set (0.65-9.99 μg/g), and are shown in FIG. 11A.

[2] = tested on: Weissella viridescens NRRL B-1951; assay: HPLC of tube supernatants: glucose consumption and organic acid production; assay type: cell-based; settings: for acetic acid in fermentation media: MRS media originally contained 7% acetate
Method: Each tube was sampled (1.5 mL conical polypropylene centrifuge tubes) and centrifuged at 10 kRPM for 10 minutes to remove and suspended cells. The resulting supernatants were filtered (0.2 μm nylon), diluted to 0.5% solids, and analyzed by high pressure liquid chromatography (HPLC, Agilent 1100, refractive index detector and BioRad Ainex HPX-87H column) for consumption of glucose and production of organic acids.
Note that the MRS media originally contained 7% acetate; therefore 7% should be subtracted from the values for acetate in Table 8 to ascertain the amount of acetate generated during the assay.

[3] = precipitation noted in proliferation assay (FIG. 9E); assay type: physicochemical
Method: As illustrated, nisins can have some uncommon amino acids such as lanthionine (Lan), methyllanthionine (MeLan), didehydroalanine (Dha), and didehydroaminobutyric acid (Dhb). FIG. 9E graphically illustrates inhibition of HCT-15 and DLD-1 colorectal cancer cell proliferation and IC50 values obtained for nisins A and Z. The plot is representative of four triplicate tests including two each for HCT-15 and DLD-1 cells. Note that Nisin A began to precipitate at concentrations >400 μg/mL.

[4] = tube A2, nisin A 0.33 μg/g, 15 Hr
[5] = tube A3, nisin A 0.68 μg/g, 15 Hr
[6] = tube A4, nisin A 1.38 μg/g, 15 Hr
[7] = tube A5, nisin A 3.08 μg/g, 15 Hr
[8] = tube A6, nisin A 5.97 μg/g, 15 Hr
[9] = tube A7, nisin A 8.86 μg/g, 15 Hr
[10] = tube A8, nisin A 11.87 μg/g, 15 Hr

Sequence: MSTKDFNLDLVSVSKKDSGASPRITSISLCTPGCKTGALMGCNMKTATCHCSIHVSK [nisin A]
- MIC, separate experiment [1]: about 2.5 μg/g
- minimal inhibitory concentration estimated from graphs ([1]; 15 Hr, 31° C.): 5 to 7 µg/g
- 91516 ABS 610f [1, 4]: 1.568
- Corrected ABS 610rs [1, 4]: 1.106
- 91516 ABS 610f [1, 5]: 1.531
- Corrected ABS 610rs [1, 5]: 1.063
- 91516 ABS 610f [1, 6]: 1.334
- Corrected ABS 610rs [1, 6]: 0.868
- 91516 ABS 610f [1, 7]: 0.911
- Corrected ABS 610rs [1, 7]: 0.473
- 91516 ABS 610f [1, 8]: 0.536
- Corrected ABS 610rs [1, 8]: 0.116
- 91516 ABS 610f [1, 9]: 0.403
- Corrected ABS 610rs [1, 9]: 0.001
- 91516 ABS 610f [1, 10]: 0.361
- Corrected ABS 610rs [1, 10]: 0.001
- Maltotriose in fermentation media ([2]; tube A2, nisin A 0.33 μg/g): 0.312 %/brix
- ethanol in fermentation media ([2]; tube A2, nisin A 0.33 μg/g): 0.068 %/brix
- formic acid in fermentation media ([2]; tube A2, nisin A 0.33 μg/g): 0.263 %/brix
- fructose in fermentation media ([2]; tube A2, nisin A 0.33 μg/g): 0.000 %/brix
- glucose in fermentation media ([2]; tube A2, nisin A 0.33 μg/g): 23.122 %/brix
- glycerol in fermentation media ([2]; tube A2, nisin A 0.33 μg/g): 0.292 %/brix
- lactic acid in fermentation media ([2]; tube A2, nisin A 0.33 μg/g): 6.884 %/brix
- maltose in fermentation media ([2]; tube A2, nisin A 0.33 μg/g): 0.581 %/brix
- acetic acid in fermentation media ([2]; tube A2, nisin A 0.33 μg/g): 7.967 %/brix
- Maltotriose in fermentation media ([2]; tube A4, nisin A 1.38 μg/g): 0.298 %/brix
- ethanol in fermentation media ([2]; tube A4, nisin A 1.38 μg/g): 0.062 %/brix
- formic acid in fermentation media ([2]; tube A4, nisin A 1.38 μg/g): 0.282 %/brix
- fructose in fermentation media ([2]; tube A4, nisin A 1.38 μg/g): 0.000 %/brix
- glucose in fermentation media ([2]; tube A4, nisin A 1.38 μg/g): 24.138 %/brix
- glycerol in fermentation media ([2]; tube A4, nisin A 1.38 μg/g): 0.319 %/brix
- lactic acid in fermentation media ([2]; tube A4, nisin A 1.38 μg/g): 5.496 %/brix
- maltose in fermentation media ([2]; tube A4, nisin A 1.38 μg/g): 0.815 %/brix
- acetic acid in fermentation media ([2]; tube A4, nisin A 1.38 μg/g): 8.219 %/brix
- Maltotriose in fermentation media ([2]; tube A5, nisin A 3.08 μg/g): 0.276 %/brix
- ethanol in fermentation media ([2]; tube A5, nisin A 3.08 μg/g): 0.094 %/brix
- formic acid in fermentation media ([2]; tube A5, nisin A 3.08 μg/g): 0.407 %/brix
- fructose in fermentation media ([2]; tube A5, nisin A 3.08 μg/g): 0.000 %/brix
- glucose in fermentation media ([2]; tube A5, nisin A 3.08 μg/g): 24.698 %/brix
- glycerol in fermentation media ([2]; tube A5, nisin A 3.08 μg/g): 0.350 %/brix
- lactic acid in fermentation media ([2]; tube A5, nisin A 3.08 μg/g): 4.672 %/brix
- maltose in fermentation media ([2]; tube A5, nisin A 3.08 μg/g): 0.598 %/brix
- acetic acid in fermentation media ([2]; tube A5, nisin A 3.08 μg/g): 8.296 %/brix
- Maltotriose in fermentation media ([2]; tube A6, nisin A 5.97 μg/g): 0.288 %/brix
- ethanol in fermentation media ([2]; tube A6, nisin A 5.97 μg/g): 0.057 %/brix
- formic acid in fermentation media ([2]; tube A6, nisin A 5.97 μg/g): 0.280 %/brix
- fructose in fermentation media ([2]; tube A6, nisin A 5.97 μg/g): 0.000 %/brix
- glucose in fermentation media ([2]; tube A6, nisin A 5.97 μg/g): 25.304 %/brix
- glycerol in fermentation media ([2]; tube A6, nisin A 5.97 μg/g): 0.328 %/brix
- lactic acid in fermentation media ([2]; tube A6, nisin A 5.97 μg/g): 2.707 %/brix
- maltose in fermentation media ([2]; tube A6, nisin A 5.97 μg/g): 0.941 %/brix
- acetic acid in fermentation media ([2]; tube A6, nisin A 5.97 μg/g): 8.143 %/brix
- Maltotriose in fermentation media ([2]; tube A7, nisin A 8.86 μg/g): 0.419 %/brix
- ethanol in fermentation media ([2]; tube A7, nisin A 8.86 μg/g): 0.055 %/brix
- formic acid in fermentation media ([2]; tube A7, nisin A 8.86 μg/g): 0.234 %/brix
- fructose in fermentation media ([2]; tube A7, nisin A 8.86 μg/g): 0.000 %/brix
- glucose in fermentation media ([2]; tube A7, nisin A 8.86 μg/g): 25.444 %/brix
- glycerol in fermentation media ([2]; tube A7, nisin A 8.86 μg/g): 0.299 %/brix
- lactic acid in fermentation media ([2]; tube A7, nisin A 8.86 μg/g): 1.521 %/brix
- maltose in fermentation media ([2]; tube A7, nisin A 8.86 μg/g): 0.775 %/brix
- acetic acid in fermentation media ([2]; tube A7, nisin A 8.86 μg/g): 7.899 %/brix
- Maltotriose in fermentation media ([2]; tube A8, nisin A 11.87 μg/g): 0.305 %/brix
- ethanol in fermentation media ([2]; tube A8, nisin A 11.87 μg/g): 0.071 %/brix
- formic acid in fermentation media ([2]; tube A8, nisin A 11.87 μg/g): 0.233 %/brix
- fructose in fermentation media ([2]; tube A8, nisin A 11.87 μg/g): 0.000 %/brix
- glucose in fermentation media ([2]; tube A8, nisin A 11.87 μg/g): 25.537 %/brix
- glycerol in fermentation media ([2]; tube A8, nisin A 11.87 μg/g): 0.301 %/brix
- lactic acid in fermentation media ([2]; tube A8, nisin A 11.87 μg/g): 1.579 %/brix
- maltose in fermentation media ([2]; tube A8, nisin A 11.87 μg/g): 0.739 %/brix
- acetic acid in fermentation media ([2]; tube A8, nisin A 11.87 μg/g): 8.091 %/brix
- concentration at which precipitation began [3]: > 400 µg/mL
